{"source": "patent US20230405009A1", "about": "“METHODS FOR TREATING HEMATOLOGIC MALIGNANCIES WITH AMINO-PYRROLOPYRIMIDINONE COMPOUNDS” (Merck Sharp & Dohme LLC, priority 2020, published 2023)", "origin": "cited, not measured here", "key": {"DLBCL mouse models": {"test_system": "DLBCL mouse models", "conditions": "Reiff et al. Cancer Discovery 2018"}, "CLL mouse models": {"test_system": "CLL mouse models", "conditions": "Reiff et al. Cancer Discovery 2018"}}}
{"molecule": "O=C(c1ccc(Oc2ccccc2)cc1Cl)c1c[nH]c2ncnc(N[C@@H]3CC[C@@H](CO)OC3)c12", "note": "[Compound A]", "values": [{"measurement": "efficacy compared with ibrutinib in DLBCL mouse models", "setting": "DLBCL mouse models", "result": "superiority over ibrutinib"}, {"measurement": "efficacy compared with ibrutinib in CLL mouse models", "setting": "CLL mouse models", "result": "superiority over ibrutinib"}]}
